In brackets after ≈: the same amount, converted by molar mass. Read-outs that look alike come from different tables or passages of the source.
Tests used:
Assay type in all cases: cell-based
[1] = tested on: Staphylococcus epidermidis 835; test: MIC, broth microdilution, SE 835; conditions: Staphylococcus epidermidis, 835, class symbols, read-out: MIC SE 835
Procedure: (§1) Antibacterial activity in vitro is investigated by broth microdilution method in Meuller-Hinton broth as recommended by NCCLS. All strains tested are clinical isolates either sensitive or resistant to natural glycopeptides. MIC values were determined using the CLSI-recommended broth microdilution procedure (Clinical and Laboratory Standards Institute, Methods for Dilution Antimicrobial Susceptibility Tests for Bacteria That Grow Aerobically; Approved Standard-Seventh Edition.). Automated liquid handlers (Multidrop 384, Labsystems, Helsinki, Finland; Biomek 2000 and Multimek 96, Beckman Coulter, Fullerton Calif.) were used to conduct serial dilutions and liquid transfers. The MIC value for vancomycin is given for comparison. The abbreviations for organisms tested are as follow: SA 100—Staphylococcus aureus 100 (ATCC 29213); SA 757—Staphylococcus aureus 757 (MRSA); SA 2012—Staphylococcus aureus 2012 (VISA); SE 835—Staphylococcus epidermidis 835; SE 831—Staphylococcus epidermidis 831 (MRSE); EFc 101—Enterococcus faecalis 101 (ATCC 29212); EFc 848—Enterococcus faecalis 848 (VRE, Van A); EFcm 800—Enterococcus faecium 800; EFcm 752—Enterococcus faecium 752 (VRE, Van A); SPNE 1195—Streptococcus pneumoniae 1195 (ATCC 49619); SPY 712—Streptococcus pyogenes 712.

[2] = tested on: Enterococcus faecalis 848 (VRE, Van A); test: MIC, broth microdilution, EFc 848; conditions: VRE, Van A, class symbols, read-out: MIC E FC 848
Procedure: as §1

[3] = tested on: Staphylococcus epidermidis 831 (MRSE); test: MIC, broth microdilution, SE 831; conditions: Staphylococcus epidermidis, read-out: MIC SE 831
Procedure: as §1

Enterococcus faecium 800 = test: MIC, broth microdilution, EFcm 800; conditions: Enterococcus faecium, 800, class symbols, read-out: MIC E FCM 800
Procedure: as §1

[4] = tested on: Streptococcus pyogenes 712; test: MIC, broth microdilution, SPY 712; conditions: Streptococcus pyogenes, 712, class symbols, read-out: MIC S PYO 712
Procedure: as §1

[5] = tested on: Staphylococcus aureus 100 (ATCC 29213); test: MIC, broth microdilution, SA 100; conditions: Staphylococcus aureus, ATCC29213, class symbols, read-out: MIC SA 100
Procedure: as §1

[6] = tested on: Staphylococcus aureus 2012 (VISA); test: MIC, broth microdilution, SA 2012; conditions: read-out: MIC SA 2012
Procedure: as §1

[7] = tested on: Enterococcus faecium 752 (VRE, Van A); test: MIC, broth microdilution, EFcm 752; conditions: VRE, Van A, class symbols, read-out: MIC E FCM 752
Procedure: as §1

[8] = tested on: Staphylococcus aureus 757 (MRSA); test: MIC, broth microdilution, SA 757; conditions: read-out: MIC SA 757
Procedure: as §1

[9] = tested on: Enterococcus faecalis 101 (ATCC 29212); test: MIC, broth microdilution, EFc 101; conditions: Enterococcus faecalis, ATCC29212, class symbols, read-out: MIC E FC 101
Procedure: as §1

[10] = tested on: Streptococcus pneumoniae 1195 (ATCC 49619); test: MIC, broth microdilution, SPNE 1195; conditions: Streptococcus pneumoniae, ATCC49619, class symbols, read-out: MIC S PNE 1195
Procedure: as §1

[11] = Table 2, in the presence of 0.002% Polysorbate 80
[12] = Table 2, in the presence of 0.002% Polysorbate 80, class symbols

MIC [1, 11] [µg/mL] | MIC [2, 11] [µg/mL] | MIC [3, 12] [µg/mL] | MIC (Enterococcus faecium 800; [11]) [µg/mL] | MIC [4, 11] [µg/mL] | MIC [5, 11] [µg/mL] | MIC [6, 12] [µg/mL] | MIC [7, 11] [µg/mL] | MIC [8, 12] [µg/mL] | MIC [9, 11] [µg/mL] | MIC [10, 11] [µg/mL] | Compound | further results
0.5 to 1 | > 16 | 0.01 to 0.5 | 0.01 to 0.5 | 0.01 to 0.5 | 0.01 to 0.5 | 1 to 2 | 2 to 4 | 0.01 to 0.5 | 0.01 to 0.5 | 0.01 to 0.5 | CN[C@H](CC(C)C)C(=O)N[C@H]1C(=O)N[C@@H](CC(=O)NC(=O)c2ccc(OCCN)c(OCCN)c2)C(=O)N[C@H]2C(=O)N[C@H]3C(=O)N[C@H](C(=O)N[C@H](C(=O)NC4C5CC6CC(C5)CC4C6)c4cc(O)cc(O)c4-c4cc3ccc4O)[C@H](O)c3ccc(c(Cl)c3)Oc3cc2cc(c3O[C@@H]2O[C@H](CO)[C@@H](O)[C@H](O)[C@H]2O[C@H]2C[C@](C)(N)[C@H](O)[C@H](C)O2)Oc2ccc(cc2Cl)[C@H]1O (stereo partly shown) [Compound 165] | –
0.01 to 0.5 | > 16 | 0.01 to 0.5 | 0.01 to 0.5 | 0.01 to 0.5 | 0.01 to 0.5 | 0.5 to 1 | > 16 | 0.01 to 0.5 | 0.01 to 0.5 | 0.01 to 0.5 | CNCCOCc1cc(OCCNC)cc(C(=O)NC(=O)C[C@@H]2NC(=O)[C@H](NC(=O)[C@@H](CC(C)C)NC)[C@H](O)c3ccc(c(Cl)c3)Oc3cc4cc(c3O[C@@H]3O[C@H](CO)[C@@H](O)[C@H](O)[C@H]3O[C@H]3C[C@](C)(N)[C@H](O)[C@H](C)O3)Oc3ccc(cc3Cl)[C@@H](O)[C@@H]3NC(=O)[C@H](NC(=O)[C@@H]4NC2=O)c2ccc(O)c(c2)-c2c(O)cc(O)cc2[C@@H](C(=O)NC2C4CC5CC(C4)CC2C5)NC3=O)c1 (stereo partly shown) [Compound 153] | –
1 to 2 | > 16 | 0.01 to 0.5 | 0.5 to 1 | 0.01 to 0.5 | 1 to 2 | 1 to 2 | 4 to 8 | 1 to 2 | 1 to 2 | 0.5 to 1 | CN[C@H](CC(C)C)C(=O)N[C@H]1C(=O)N[C@@H](CC(=O)NC(=O)c2ccc(OCCCN)c(OCCCN)c2)C(=O)N[C@H]2C(=O)N[C@H]3C(=O)N[C@H](C(=O)N[C@H](C(=O)NC4C5CC6CC(C5)CC4C6)c4cc(O)cc(O)c4-c4cc3ccc4O)[C@H](O)c3ccc(c(Cl)c3)Oc3cc2cc(c3O[C@@H]2O[C@H](CO)[C@@H](O)[C@H](O)[C@H]2O)Oc2ccc(cc2Cl)[C@H]1O (stereo partly shown) [Compound 163] | –
– | – | – | – | – | – | – | – | – | – | – | CCCCCCCCCC(=O)NC(=O)C[C@@H]1NC(=O)[C@H](NC(=O)[C@@H](CC(C)C)NC)[C@H](O)c2ccc(c(Cl)c2)Oc2cc3cc(c2O[C@@H]2O[C@H](CO)[C@@H](O)[C@H](O)[C@H]2O[C@H]2C[C@](C)(N)[C@H](O)[C@H](C)O2)Oc2ccc(cc2Cl)[C@@H](O)[C@@H]2NC(=O)[C@H](NC(=O)[C@@H]3NC1=O)c1ccc(O)c(c1)-c1c(O)cc(O)cc1[C@@H](C(=O)NC1C3CC4CC(C3)CC1C4)NC2=O (stereo partly shown) [Compound 43] | MIC ([1]; Table 1): 0.01 to 0.5 µg/mL (≈ 0.00576 to 0.288 µM); MIC ([2]; Table 1): 1 to 2 µg/mL (≈ 0.576 to 1.15 µM); MIC ([3]; Table 1, class symbols): 0.01 to 0.5 µg/mL (≈ 0.00576 to 0.288 µM); MIC (Enterococcus faecium 800; Table 1): 0.01 to 0.5 µg/mL (≈ 0.00576 to 0.288 µM); MIC ([4]; Table 1): 0.01 to 0.5 µg/mL (≈ 0.00576 to 0.288 µM); MIC ([5]; Table 1): 0.01 to 0.5 µg/mL (≈ 0.00576 to 0.288 µM); MIC ([6]; Table 1, class symbols): 1 to 2 µg/mL (≈ 0.576 to 1.15 µM); MIC ([7]; Table 1): 0.01 to 0.5 µg/mL (≈ 0.00576 to 0.288 µM); MIC ([8]; Table 1, class symbols): 0.5 to 1 µg/mL (≈ 0.288 to 0.576 µM); MIC ([9]; Table 1): 0.01 to 0.5 µg/mL (≈ 0.00576 to 0.288 µM); MIC ([10]; Table 1): 0.01 to 0.5 µg/mL (≈ 0.00576 to 0.288 µM)
0.5 to 1 | > 16 | 0.01 to 0.5 | 0.01 to 0.5 | 0.01 to 0.5 | 0.5 to 1 | 0.5 to 1 | 4 to 8 | 0.5 to 1 | 0.5 to 1 | 0.5 to 1 | CN[C@H](CC(C)C)C(=O)N[C@H]1C(=O)N[C@@H](CC(=O)NC(=O)c2ccc(OCCN)c(OCCN)c2)C(=O)N[C@H]2C(=O)N[C@H]3C(=O)N[C@H](C(=O)N[C@H](C(=O)NC4C5CC6CC(C5)CC4C6)c4cc(O)cc(O)c4-c4cc3ccc4O)[C@H](O)c3ccc(c(Cl)c3)Oc3cc2cc(c3O[C@@H]2O[C@H](CO)[C@@H](O)[C@H](O)[C@H]2O)Oc2ccc(cc2Cl)[C@H]1O (stereo partly shown) [Compound 159] | –
0.5 to 1 | > 16 | 0.01 to 0.5 | 0.01 to 0.5 | 0.01 to 0.5 | 0.01 to 0.5 | 1 to 2 | 2 to 4 | 0.01 to 0.5 | 0.01 to 0.5 | 0.01 to 0.5 | CN[C@H](CC(C)C)C(=O)N[C@H]1C(=O)N[C@@H](CC(=O)NC(=O)c2ccc(OCCCN)c(OCCCN)c2)C(=O)N[C@H]2C(=O)N[C@H]3C(=O)N[C@H](C(=O)N[C@H](C(=O)NC4C5CC6CC(C5)CC4C6)c4cc(O)cc(O)c4-c4cc3ccc4O)[C@H](O)c3ccc(c(Cl)c3)Oc3cc2cc(c3O[C@@H]2O[C@H](CO)[C@@H](O)[C@H](O)[C@H]2O[C@H]2C[C@](C)(N)[C@H](O)[C@H](C)O2)Oc2ccc(cc2Cl)[C@H]1O (stereo partly shown) [Compound 166] | –
– | – | – | – | – | – | – | – | – | – | – | CCCCOc1ccc(S(=O)(=O)NC(=O)C[C@@H]2NC(=O)[C@H](NC(=O)[C@@H](CC(C)C)NC)[C@H](O)c3ccc(c(Cl)c3)Oc3cc4cc(c3O[C@@H]3O[C@H](CN)[C@@H](O)[C@H](O)[C@H]3O)Oc3ccc(cc3Cl)[C@@H](O)[C@@H]3NC(=O)[C@H](NC(=O)[C@@H]4NC2=O)c2ccc(O)c(c2)-c2c(O)cc(O)cc2[C@@H](C(=O)NC2C4CC5CC(C4)CC2C5)NC3=O)cc1 (stereo partly shown) [Compound 99] | MIC ([1]; Table 1): 0.01 to 0.5 µg/mL (≈ 0.00606 to 0.303 µM); MIC ([2]; Table 1): 0.5 to 1 µg/mL (≈ 0.303 to 0.606 µM); MIC ([3]; Table 1, class symbols): 0.01 to 0.5 µg/mL (≈ 0.00606 to 0.303 µM); MIC (Enterococcus faecium 800; Table 1): 0.01 to 0.5 µg/mL (≈ 0.00606 to 0.303 µM); MIC ([4]; Table 1): 0.01 to 0.5 µg/mL (≈ 0.00606 to 0.303 µM); MIC ([5]; Table 1): 0.01 to 0.5 µg/mL (≈ 0.00606 to 0.303 µM); MIC ([6]; Table 1, class symbols): 0.5 to 1 µg/mL (≈ 0.303 to 0.606 µM); MIC ([7]; Table 1): 0.01 to 0.5 µg/mL (≈ 0.00606 to 0.303 µM); MIC ([8]; Table 1, class symbols): 0.01 to 0.5 µg/mL (≈ 0.00606 to 0.303 µM); MIC ([9]; Table 1): 0.01 to 0.5 µg/mL (≈ 0.00606 to 0.303 µM); MIC ([10]; Table 1): 0.5 to 1 µg/mL (≈ 0.303 to 0.606 µM)

Compound | MIC [1, 11] [µg/mL] | MIC [2, 11] [µg/mL] | MIC [3, 12] [µg/mL] | MIC (Enterococcus faecium 800; [11]) [µg/mL] | MIC [4, 11] [µg/mL] | MIC [5, 11] [µg/mL] | MIC [6, 12] [µg/mL] | MIC [7, 11] [µg/mL] | MIC [8, 12] [µg/mL] | MIC [9, 11] [µg/mL] | MIC [10, 11] [µg/mL] | further results
CNCCOc1cc(C(=O)NC(=O)C[C@@H]2NC(=O)[C@H](NC(=O)[C@@H](CC(C)C)NC)[C@H](O)c3ccc(c(Cl)c3)Oc3cc4cc(c3O[C@@H]3O[C@H](CO)[C@@H](O)[C@H](O)[C@H]3O)Oc3ccc(cc3Cl)[C@@H](O)[C@@H]3NC(=O)[C@H](NC(=O)[C@@H]4NC2=O)c2ccc(O)c(c2)-c2c(O)cc(O)cc2[C@@H](C(=O)NC2C4CC5CC(C4)CC2C5)NC3=O)cc(OCCNC)c1OCCNC (stereo partly shown) [Compound 162] | 0.5 to 1 | > 16 | 0.01 to 0.5 | 0.5 to 1 | 0.01 to 0.5 | 2 to 4 | 2 to 4 | 8 to 16 | 1 to 2 | 1 to 2 | 1 to 2 | –

Source: patent US20120252741A1, “NOVEL SEMI-SYNTHETIC GLYCOPEPTIDES AS ANTIBACTERIAL AGENTS” (priority 2008, published 2012)
